We go through six compounds from ChEMBL document CHEMBL4819029, “Biflavanones, Chalconoids, and Flavonoid Analogues from the Stem Bark of Ochna holstii” (J Nat Prod, 2021).

The MIC is the smallest concentration in the dilution series that meets the test's criterion for growth inhibition. Higher therefore signals a less susceptible organism. As a reminder, the EC50 is the concentration needed to bring the measured effect to its halfway point.

In brackets after ≈: the same amount, converted by molar mass. Activity calls are given as the source filed them.

For one test, the system named is Bacillus subtilis. Nature of the test: Antibacterial activity against Bacillus subtilis incubated for 24 hrs by resazurin based assay. The test is classed as functional. Background: Resazurin is reduced to fluorescent resorufin, in cell work by metabolically active cells.
A further test deals with MCF7. Put plainly: Cytotoxicity against human MCF7 cells assessed as reduction in cell viability after 24 hrs by PrestoBlue dye based fluorescence assay. The class given is functional. As to conditions: MCF7, 24 h.
In a further test the test system is Escherichia coli. Put plainly: Antibacterial activity against Escherichia coli incubated for 24 hrs by resazurin based assay. The class given is functional, organism-based.

Consider `COc1cc(O)c2c(c1)O[C@@H](c1ccc(O)cc1)[C@H]([C@@H]1C(=O)c3ccc(O)cc3O[C@H]1c1ccc(O)cc1)C2=O`, for which the MIC with Bacillus subtilis was 14 µM (≈ 7.57 µg/mL). `COc1cc(O)c2c(c1)OC(c1ccc(O)cc1)C(C1C(=O)c3c(O)cc(OC)cc3OC1c1ccc(O)cc1)C2=O` (stereo not drawn) yielded an MIC with Bacillus subtilis above 250 µM.

As for `O=C(c1ccc(O)cc1O)[C@H]1[C@H](C(=O)c2ccc(O)cc2O)[C@H](c2ccc(O)cc2)O[C@@H]1c1ccc(O)cc1`, the EC50 with MCF7 worked out at 24 µM. The outcome with Escherichia coli was inactive. Also, the MIC in the test on Bacillus subtilis was above 250 µM. For the compound `COc1ccc([C@H]2Oc3cc(OC)cc(O)c3C(=O)[C@@H]2[C@H]2C(=O)c3c(O)cc(OC)cc3O[C@@H]2c2ccc(O)cc2)cc1`, the MIC in the test with Bacillus subtilis was above 250 µM. In the case of `O=C(/C=C/c1ccc(O)c(Oc2ccc(CCC(=O)c3ccc(O)cc3O)cc2)c1)c1ccc(O)cc1O`, the MIC with Bacillus subtilis was above 250 µM.

`O=C1c2ccc(O)cc2O[C@@H](c2ccc(O)cc2)[C@@H]1[C@@H]1C(=O)c2ccc(O)cc2O[C@H]1c1ccc(O)cc1` registered an MIC in the test with Bacillus subtilis above 250 µM.
